Data published in PMC3582025 (European journal of pharmacology, 2012).
Several values for one entry are separate records, joined by “and”; a condition that tells them apart may be missing. Equal values may be shown once.

target: human cloned 5-HT2B receptor (Homo sapiens, UniProt P41595); experiment: 5-HT2B functional assay, intracellular Ca++ mobilization; format: cell-based; conditions: HEK-T cells
Sequence (P41595 whole entry): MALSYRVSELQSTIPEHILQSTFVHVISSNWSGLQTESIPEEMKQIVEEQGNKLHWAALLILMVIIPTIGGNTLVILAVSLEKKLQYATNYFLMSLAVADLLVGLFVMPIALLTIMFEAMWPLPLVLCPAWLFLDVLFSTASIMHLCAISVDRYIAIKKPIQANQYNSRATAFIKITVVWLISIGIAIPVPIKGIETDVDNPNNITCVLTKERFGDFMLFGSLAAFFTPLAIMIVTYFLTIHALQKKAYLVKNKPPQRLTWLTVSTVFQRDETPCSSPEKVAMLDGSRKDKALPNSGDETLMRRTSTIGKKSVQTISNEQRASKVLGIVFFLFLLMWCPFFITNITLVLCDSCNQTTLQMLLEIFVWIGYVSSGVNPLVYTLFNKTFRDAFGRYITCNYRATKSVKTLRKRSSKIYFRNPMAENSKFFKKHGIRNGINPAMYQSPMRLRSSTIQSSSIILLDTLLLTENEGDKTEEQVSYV

Compound | 5-HT2B agonist EC50 | 5-HT2B agonist activity
CC(N)Cc1ccc2ccoc2c1.Cl (centres unmarked) [6-APB, 1-(benzofuran-6-yl)propan-2-amine hydrochloride] | nanomolar | potent full agonists
CC(N)Cc1ccc2occc2c1.Cl (centres unmarked) [5-APB, 1-(benzofuran-5-yl)propan-2-amine hydrochloride] | nanomolar | potent full agonists

target: T1, α2C adrenoceptors (Homo sapiens, UniProt P18825); experiment: Radioligand binding assay; conditions: α2C adrenoceptor affinity Ki
T1 sequence (P18825 1-462): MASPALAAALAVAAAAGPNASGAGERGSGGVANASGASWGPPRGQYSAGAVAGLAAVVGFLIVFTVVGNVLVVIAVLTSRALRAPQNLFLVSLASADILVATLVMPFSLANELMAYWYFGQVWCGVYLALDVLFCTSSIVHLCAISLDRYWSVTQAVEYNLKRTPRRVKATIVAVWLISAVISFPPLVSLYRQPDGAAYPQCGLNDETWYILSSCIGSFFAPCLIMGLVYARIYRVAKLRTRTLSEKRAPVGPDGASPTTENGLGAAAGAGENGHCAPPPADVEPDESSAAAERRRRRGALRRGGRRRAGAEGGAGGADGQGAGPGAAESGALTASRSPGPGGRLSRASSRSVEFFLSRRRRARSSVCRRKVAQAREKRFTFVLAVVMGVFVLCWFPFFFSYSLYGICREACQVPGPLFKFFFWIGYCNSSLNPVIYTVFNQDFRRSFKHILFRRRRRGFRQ

Compound | Ki [nM]
CC(N)Cc1ccc2ccoc2c1.Cl (centres unmarked) [6-APB, 1-(benzofuran-6-yl)propan-2-amine hydrochloride] | 45
CC(N)Cc1ccc2occc2c1.Cl (centres unmarked) [5-APB, 1-(benzofuran-5-yl)propan-2-amine hydrochloride] | < 100

target: SERT (Homo sapiens, UniProt P31645); experiment: Radioligand binding assay; conditions: not given
Sequence (P31645 whole entry): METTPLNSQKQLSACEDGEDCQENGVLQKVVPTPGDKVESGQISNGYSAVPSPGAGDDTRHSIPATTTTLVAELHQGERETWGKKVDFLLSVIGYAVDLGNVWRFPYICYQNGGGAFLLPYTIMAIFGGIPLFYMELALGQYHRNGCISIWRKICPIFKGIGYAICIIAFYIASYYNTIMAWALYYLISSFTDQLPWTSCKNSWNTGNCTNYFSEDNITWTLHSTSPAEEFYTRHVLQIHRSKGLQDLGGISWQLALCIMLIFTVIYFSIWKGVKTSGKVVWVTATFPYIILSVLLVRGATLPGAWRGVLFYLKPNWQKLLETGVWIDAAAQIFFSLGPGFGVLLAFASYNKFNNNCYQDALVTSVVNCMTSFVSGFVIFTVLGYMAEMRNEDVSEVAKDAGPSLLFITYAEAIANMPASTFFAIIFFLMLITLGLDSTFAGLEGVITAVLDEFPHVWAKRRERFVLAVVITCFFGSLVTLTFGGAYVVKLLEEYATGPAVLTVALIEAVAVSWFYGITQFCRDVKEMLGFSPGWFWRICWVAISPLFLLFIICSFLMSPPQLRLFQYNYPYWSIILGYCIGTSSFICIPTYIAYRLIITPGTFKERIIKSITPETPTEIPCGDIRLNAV

Compound | Ki [nM]
CCCC(C(=O)c1cccc2ccccc12)N1CCCC1.Cl (centres unmarked) [1-Naphyrone, 1-naphthalen-1-yl-2-pyrrolidin-1-ylpentan-1-one hydrochloride] | < 100
CCCC(C(=O)c1ccc2ccccc2c1)N1CCCC1.Cl (centres unmarked) [Naphyrone, 1-naphthalen-2-yl-2-pyrrolidin-1-ylpentan-1-one hydrochloride] | < 100

target: 5-HT2B serotonin receptors (Homo sapiens, UniProt P41595); experiment: Radioligand binding assay; conditions: not given
Sequence (P41595 whole entry): as the sequence (P41595 whole entry) above

Compound | 5-HT2B receptor affinity Ki
CCCC(C(=O)c1cccc2ccccc12)N1CCCC1.Cl (centres unmarked) [1-Naphyrone, 1-naphthalen-1-yl-2-pyrrolidin-1-ylpentan-1-one hydrochloride] | submicromolar
CCCC(C(=O)c1ccc2ccccc2c1)N1CCCC1.Cl (centres unmarked) [Naphyrone, 1-naphthalen-2-yl-2-pyrrolidin-1-ylpentan-1-one hydrochloride] | submicromolar

same assay, conditions: 5-HT2B receptor affinity Ki

Compound | Ki
CC(N)Cc1ccc2ccoc2c1.Cl (centres unmarked) [6-APB, 1-(benzofuran-6-yl)propan-2-amine hydrochloride] | 3.7 nM
CC(N)Cc1ccc2occc2c1.Cl (centres unmarked) [5-APB, 1-(benzofuran-5-yl)propan-2-amine hydrochloride] | < 100 nM and 14 nM

target: DAT (Homo sapiens, UniProt Q01959); experiment: Radioligand binding assay; conditions: not given
Sequence (Q01959 whole entry): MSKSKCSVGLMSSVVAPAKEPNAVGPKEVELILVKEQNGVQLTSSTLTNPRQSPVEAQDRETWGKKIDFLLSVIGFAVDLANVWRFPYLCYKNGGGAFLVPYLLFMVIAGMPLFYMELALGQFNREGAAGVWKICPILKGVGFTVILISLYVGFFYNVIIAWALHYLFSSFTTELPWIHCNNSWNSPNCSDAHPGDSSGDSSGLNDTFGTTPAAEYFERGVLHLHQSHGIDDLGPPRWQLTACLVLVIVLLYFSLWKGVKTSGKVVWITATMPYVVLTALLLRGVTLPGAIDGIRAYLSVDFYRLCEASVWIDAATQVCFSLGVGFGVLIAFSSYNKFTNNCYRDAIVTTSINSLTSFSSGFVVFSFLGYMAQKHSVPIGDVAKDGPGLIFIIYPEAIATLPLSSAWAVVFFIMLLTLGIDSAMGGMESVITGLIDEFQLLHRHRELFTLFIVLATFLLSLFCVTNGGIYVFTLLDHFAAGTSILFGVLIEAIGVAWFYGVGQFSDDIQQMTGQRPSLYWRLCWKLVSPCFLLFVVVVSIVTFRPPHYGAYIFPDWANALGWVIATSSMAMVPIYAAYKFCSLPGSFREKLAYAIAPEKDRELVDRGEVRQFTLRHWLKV

Compound | Ki [nM]
CC(N)Cc1ccc2occc2c1.Cl (centres unmarked) [5-APB, 1-(benzofuran-5-yl)propan-2-amine hydrochloride] | < 100

target: norepinephrine transporter (NET) (Homo sapiens, UniProt P23975); experiment: cell-based; format: cell-based; conditions: not given
Sequence (P23975 whole entry): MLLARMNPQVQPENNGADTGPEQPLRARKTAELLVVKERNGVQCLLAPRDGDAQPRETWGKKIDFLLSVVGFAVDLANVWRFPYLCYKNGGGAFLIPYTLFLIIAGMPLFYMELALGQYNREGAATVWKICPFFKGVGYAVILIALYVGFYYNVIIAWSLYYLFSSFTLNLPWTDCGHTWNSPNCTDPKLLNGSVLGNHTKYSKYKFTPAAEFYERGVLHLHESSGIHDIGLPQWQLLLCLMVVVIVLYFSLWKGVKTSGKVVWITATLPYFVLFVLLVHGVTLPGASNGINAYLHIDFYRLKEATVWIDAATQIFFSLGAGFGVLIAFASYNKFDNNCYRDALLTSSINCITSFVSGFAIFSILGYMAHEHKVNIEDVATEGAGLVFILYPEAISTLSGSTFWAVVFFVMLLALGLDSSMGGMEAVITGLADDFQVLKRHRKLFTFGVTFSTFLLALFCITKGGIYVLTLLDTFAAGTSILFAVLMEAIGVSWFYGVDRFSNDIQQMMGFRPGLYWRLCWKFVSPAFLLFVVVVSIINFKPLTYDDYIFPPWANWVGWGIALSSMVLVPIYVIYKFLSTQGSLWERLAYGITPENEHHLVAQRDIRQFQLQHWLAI

Compound | NET Ki
CCCC(C(=O)c1cccc2ccccc12)N1CCCC1.Cl (centres unmarked) [1-Naphyrone, 1-naphthalen-1-yl-2-pyrrolidin-1-ylpentan-1-one hydrochloride] | submicromolar
CCCC(C(=O)c1ccc2ccccc2c1)N1CCCC1.Cl (centres unmarked) [Naphyrone, 1-naphthalen-2-yl-2-pyrrolidin-1-ylpentan-1-one hydrochloride] | submicromolar

same assay, conditions: NET Ki

Compound | Ki [nM]
CCCC(C(=O)c1ccc2ccccc2c1)N1CCCC1.Cl (centres unmarked) [Naphyrone, 1-naphthalen-2-yl-2-pyrrolidin-1-ylpentan-1-one hydrochloride] | 200

same assay, conditions: NET Ki, inhibition of transporter uptake activity

Compound | Ki [nM]
CCCC(C(=O)c1cccc2ccccc12)N1CCCC1.Cl (centres unmarked) [1-Naphyrone, 1-naphthalen-1-yl-2-pyrrolidin-1-ylpentan-1-one hydrochloride] | 536
CC(N)Cc1ccc2ccoc2c1.Cl (centres unmarked) [6-APB, 1-(benzofuran-6-yl)propan-2-amine hydrochloride] | 117
CC(N)Cc1ccc2occc2c1.Cl (centres unmarked) [5-APB, 1-(benzofuran-5-yl)propan-2-amine hydrochloride] | 180

same assay, conditions: NET pKi (mean +/- S.E.M), inhibition of transporter uptake activity, N=3

Compound | Ki [nM]
CC(N)Cc1ccc2ccoc2c1.Cl (centres unmarked) [6-APB, 1-(benzofuran-6-yl)propan-2-amine hydrochloride] | 302
CC(N)Cc1ccc2occc2c1.Cl (centres unmarked) [5-APB, 1-(benzofuran-5-yl)propan-2-amine hydrochloride] | 468

same assay, conditions: inhibition of transporter uptake activity

Compound | NET Ki
CC(N)Cc1ccc2occc2c1.Cl (centres unmarked) [5-APB, 1-(benzofuran-5-yl)propan-2-amine hydrochloride] | submicromolar

target: dopamine transporter (DAT) (Homo sapiens, UniProt Q01959); experiment: cell-based; conditions: not given
Sequence (Q01959 whole entry): as the sequence (Q01959 whole entry) above

Compound | DAT Ki
CCCC(C(=O)c1cccc2ccccc12)N1CCCC1.Cl (centres unmarked) [1-Naphyrone, 1-naphthalen-1-yl-2-pyrrolidin-1-ylpentan-1-one hydrochloride] | submicromolar
CCCC(C(=O)c1ccc2ccccc2c1)N1CCCC1.Cl (centres unmarked) [Naphyrone, 1-naphthalen-2-yl-2-pyrrolidin-1-ylpentan-1-one hydrochloride] | submicromolar

same assay, conditions: DAT Ki

Compound | Ki [nM]
CCCC(C(=O)c1cccc2ccccc12)N1CCCC1.Cl (centres unmarked) [1-Naphyrone, 1-naphthalen-1-yl-2-pyrrolidin-1-ylpentan-1-one hydrochloride] | < 100
CCCC(C(=O)c1ccc2ccccc2c1)N1CCCC1.Cl (centres unmarked) [Naphyrone, 1-naphthalen-2-yl-2-pyrrolidin-1-ylpentan-1-one hydrochloride] | 53

same assay, conditions: DAT Ki, inhibition of transporter uptake activity

Compound | Ki [nM]
CCCC(C(=O)c1cccc2ccccc12)N1CCCC1.Cl (centres unmarked) [1-Naphyrone, 1-naphthalen-1-yl-2-pyrrolidin-1-ylpentan-1-one hydrochloride] | 48
CC(N)Cc1ccc2ccoc2c1.Cl (centres unmarked) [6-APB, 1-(benzofuran-6-yl)propan-2-amine hydrochloride] | 150
CC(N)Cc1ccc2occc2c1.Cl (centres unmarked) [5-APB, 1-(benzofuran-5-yl)propan-2-amine hydrochloride] | 265

same assay, conditions: DAT pKi (mean +/- S.E.M)

Compound | Ki [nM]
CCCC(C(=O)c1ccc2ccccc2c1)N1CCCC1.Cl (centres unmarked) [Naphyrone, 1-naphthalen-2-yl-2-pyrrolidin-1-ylpentan-1-one hydrochloride] | 52.5

same assay, conditions: DAT pKi (mean +/- S.E.M), inhibition of transporter uptake activity, N=3

Compound | Ki [nM]
CCCC(C(=O)c1cccc2ccccc12)N1CCCC1.Cl (centres unmarked) [1-Naphyrone, 1-naphthalen-1-yl-2-pyrrolidin-1-ylpentan-1-one hydrochloride] | 47.9
CC(N)Cc1ccc2ccoc2c1.Cl (centres unmarked) [6-APB, 1-(benzofuran-6-yl)propan-2-amine hydrochloride] | 234
CC(N)Cc1ccc2occc2c1.Cl (centres unmarked) [5-APB, 1-(benzofuran-5-yl)propan-2-amine hydrochloride] | 501

same assay, conditions: inhibition of transporter uptake activity

Compound | DAT Ki
CC(N)Cc1ccc2occc2c1.Cl (centres unmarked) [5-APB, 1-(benzofuran-5-yl)propan-2-amine hydrochloride] | submicromolar

target: serotonin transporter (SERT) (Homo sapiens, UniProt P31645); experiment: cell-based; format: cell-based; conditions: not given
Sequence (P31645 whole entry): as the sequence (P31645 whole entry) above

Compound | SERT Ki
CCCC(C(=O)c1cccc2ccccc12)N1CCCC1.Cl (centres unmarked) [1-Naphyrone, 1-naphthalen-1-yl-2-pyrrolidin-1-ylpentan-1-one hydrochloride] | submicromolar
CCCC(C(=O)c1ccc2ccccc2c1)N1CCCC1.Cl (centres unmarked) [Naphyrone, 1-naphthalen-2-yl-2-pyrrolidin-1-ylpentan-1-one hydrochloride] | submicromolar

same assay, conditions: SERT Ki

Compound | Ki [nM]
CCCC(C(=O)c1ccc2ccccc2c1)N1CCCC1.Cl (centres unmarked) [Naphyrone, 1-naphthalen-2-yl-2-pyrrolidin-1-ylpentan-1-one hydrochloride] | 235

same assay, conditions: SERT Ki, inhibition of transporter uptake activity

Compound | Ki [nM]
CCCC(C(=O)c1cccc2ccccc12)N1CCCC1.Cl (centres unmarked) [1-Naphyrone, 1-naphthalen-1-yl-2-pyrrolidin-1-ylpentan-1-one hydrochloride] | 352
CC(N)Cc1ccc2ccoc2c1.Cl (centres unmarked) [6-APB, 1-(benzofuran-6-yl)propan-2-amine hydrochloride] | 2700
CC(N)Cc1ccc2occc2c1.Cl (centres unmarked) [5-APB, 1-(benzofuran-5-yl)propan-2-amine hydrochloride] | 811

same assay, conditions: SERT pKi (mean +/- S.E.M), inhibition of transporter uptake activity, N=3

Compound | Ki [nM]
CC(N)Cc1ccc2ccoc2c1.Cl (centres unmarked) [6-APB, 1-(benzofuran-6-yl)propan-2-amine hydrochloride] | 5500
CC(N)Cc1ccc2occc2c1.Cl (centres unmarked) [5-APB, 1-(benzofuran-5-yl)propan-2-amine hydrochloride] | 1660

same assay, conditions: inhibition of transporter uptake activity

Compound | SERT Ki
CC(N)Cc1ccc2occc2c1.Cl (centres unmarked) [5-APB, 1-(benzofuran-5-yl)propan-2-amine hydrochloride] | submicromolar

target: NET (Homo sapiens, UniProt P23975); experiment: Radioligand binding assay; conditions: not given
Sequence (P23975 whole entry): as the sequence (P23975 whole entry) above

Compound | Ki [nM]
CCCC(C(=O)c1ccc2ccccc2c1)N1CCCC1.Cl (centres unmarked) [Naphyrone, 1-naphthalen-2-yl-2-pyrrolidin-1-ylpentan-1-one hydrochloride] | < 100
